Results reported in article PMC6522510 (Nature Communications, 2019).
Where a name gives a salt, the structure may show the parent alone. Read-outs that look alike come from different tables or passages of the source.

How the values were obtained:
Design in all cases: species or system AML cell lines (8); Primary HTS, single concentration about 10 uM, Cell Titer Glo viability; log10 luminescence, per cent inhibition relative to cycloheximide control
Settings in all cases: 72 h, relative to cycloheximide control, log10 luminescence, inhibitor
CMS = system: CMS
M07e = system: M07e
ML-2 = system: ML-2
MOLM-13 = system: MOLM-13
CHRF288-11 = system: CHRF288-11
U937 = system: U937
MV4-11 = system: MV4-11
CMK = system: CMK

SMILES	CMS %inh (CMS; CMS %inh, 10 µM) [%]	M07e %inh (M07e; M07e %inh, 10 µM) [%]	ML-2 %inh (ML-2; ML-2 %inh, 10 µM) [%]	MOLM-13 %inh (MOLM-13; MOLM-13 %inh, 10 µM) [%]	CHRF288-11 %inh (CHRF288-11; CHRF288-11 %inh, 10 µM) [%]	U937 %inh (U937; U937 %inh, 10 µM) [%]	MV4-11 %inh (MV4-11; MV4-11 %inh, 10 µM) [%]	CMK %inh (CMK; CMK %inh, 10 µM) [%]	CMS %inh (CMS) [%]	M07e %inh (M07e) [%]	ML-2 %inh (ML-2) [%]	MOLM-13 %inh (MOLM-13) [%]	CHRF288-11 %inh (CHRF288-11) [%]	U937 %inh (U937) [%]	MV4-11 %inh (MV4-11) [%]	CMK %inh (CMK) [%]
CN[C@@H]1[C@H](O[C@H]2[C@H](O[C@H]3[C@H](O)[C@@H](O)[C@H](N=C(N)N)[C@@H](O)[C@@H]3N=C(N)N)O[C@@H](C)[C@]2(O)C=O)O[C@@H](CO)[C@H](O)[C@H]1O [SJ000285297-5, STREPTOMYCIN SULFATE]	-4.665	1.975	1.375	2.09	-4.766	-2.931	1.701	-3.106	–	–	–	–	–	–	–	–
Oc1c(Cl)cc(Cl)c2cccnc12 [SJ000285324-3, CHLOROXINE]	–	–	–	–	–	–	–	–	2.824	20.56	49.1	6.345	73.25	23.85	77.67	45.1
CC(C)(Oc1ccc(Cl)cc1)C(=O)O [SJ000285361-4, CLOFIBRIC ACID]	–	–	–	–	–	–	–	–	10.42	1.241	4.873	6.685	12.15	12.99	17.98	-0.9561
COc1ccc(Cl)cc1C(=O)NCCc1ccc(S(=O)(=O)NC(=O)NC2CCCCC2)cc1 [SJ000285391-7, GLYBURIDE | GLIBENCLAMIDE]	–	–	–	–	–	–	–	–	-0.9752	3.672	1.589	3.373	12.75	0.5073	0.5716	-6.568
CCC1(C)CC(=O)NC1=O (centres unmarked) [SJ000285397-7, ETHOSUXIMIDE]	–	–	–	–	–	–	–	–	-0.558	-0.04938	3.243	28.73	0.04293	0.5757	-0.6847	-1.781
O=C1CCc2cc(OCCCCc3nnnn3C3CCCCC3)ccc2N1 [SJ000285433-6, CILOSTAZOL]	–	–	–	–	–	–	–	–	1.219	4.292	-1.307	2.454	-1.23	-1.919	1.479	3.033
COCCOC(=O)C1=C(C)NC(C)=C(C(=O)OC(C)C)C1c1cccc([N+](=O)[O-])c1 (centres unmarked) [SJ000285435-8, NIMODIPINE]	-0.4109	-0.8371	3.664	3.286	5.054	6.247	7.361	-2.491	–	–	–	–	–	–	–	–
COCCOC(=O)C1=C(C)NC(C)=C(C(=O)OC(C)C)C1c1cccc([N+](=O)[O-])c1 (centres unmarked) [SJ000285435-9, NIMODIPINE]	-2.02	0.4803	2.121	3.201	6.868	7.911	8.576	3.053	–	–	–	–	–	–	–	–
COCCOC(=O)C1=C(C)NC(C)=C(C(=O)OC(C)C)C1c1cccc([N+](=O)[O-])c1 (centres unmarked) [SJ000285435-10, NIMODIPINE]	10.67	6.293	3.623	3.657	10.94	7.013	10.46	2.191	–	–	–	–	–	–	–	–
CC1=Nc2ccc(Cl)cc2S(=O)(=O)N1 [SJ000285438-7, DIAZOXIDE]	–	–	–	–	–	–	–	–	-4.011	-1.23	-2.212	13.73	3.174	2.608	-7.128	-0.09563
COc1ccc2cc(CCC(C)=O)ccc2c1 [SJ000285475-3, NABUMETONE]	0.5932	3.981	2.121	0.1221	-3.141	-2.289	0.7976	0.8703	–	–	–	–	–	–	–	–
COc1ccc2cc(CCC(C)=O)ccc2c1 [SJ000285475-4, NABUMETONE]	-2.394	-0.5005	1.434	3.416	-4.035	0.6601	-0.967	3.657	–	–	–	–	–	–	–	–
CC(CN(C)C)CN1c2ccccc2Sc2ccccc21 (centres unmarked) [SJ000285488-4, TRIMEPRAZINE TARTRATE]	–	–	–	–	–	–	–	–	-1.909	5.667	2.204	6.284	12.91	3.719	2.005	71.37
CC(C)(S)[C@@H](N)C(=O)O [SJ000285530-3, PENICILLAMINE]	–	–	–	–	–	–	–	–	1.349	4.147	0.1436	4.905	1.093	-1.029	0.7087	-2.957
CN1C(C(=O)Nc2ccccn2)=C(O)c2ccccc2S1(=O)=O [SJ000285539-7, PIROXICAM]	-2.071	-0.7405	0.4088	-0.4149	-2.388	1.434	-0.5288	-2.958	–	–	–	–	–	–	–	–
CN1C(C(=O)Nc2ccccn2)=C(O)c2ccccc2S1(=O)=O [SJ000285539-8, PIROXICAM]	1.221	1.469	0.7358	-0.7172	-0.4698	-0.5241	0.9197	-3.417	–	–	–	–	–	–	–	–
C[C@]12C=CC(=O)C=C1CC[C@@H]1[C@@H]2C(=O)C[C@@]2(C)[C@H]1CC[C@]2(O)C(=O)CO [SJ000285543-4, PREDNISONE]	-1.906	-1.735	-1.792	-1.419	3.346	-1.889	-0.9421	-3.067	–	–	–	–	–	–	–	–
C[C@]12C=CC(=O)C=C1CC[C@@H]1[C@@H]2C(=O)C[C@@]2(C)[C@H]1CC[C@]2(O)C(=O)CO [SJ000285543-5, PREDNISONE]	-1.984	3.17	-0.9024	-2.385	4.454	-0.6066	0.6819	-3.757	–	–	–	–	–	–	–	–
CCCCC1C(=O)N(c2ccccc2)N(c2ccccc2)C1=O [SJ000285567-6, PHENYLBUTAZONE]	–	–	–	–	–	–	–	–	-0.9956	3.977	1.616	-1.33	-2.959	-1.746	1.406	-7.117
O=c1c(-c2ccc(O)cc2)coc2cc(O)ccc12 [SJ000285588-6, DAIDZEIN]	–	–	–	–	–	–	–	–	-1.1	1.994	-1.236	-0.07438	1.05	-0.9488	0.1059	-0.373
CCCCC[C@H](CC(=O)NO)C(=O)N[C@H](C(=O)N1CCC[C@H]1CO)C(C)C [SJ000285589-6, ACTINONIN]	–	–	–	–	–	–	–	–	4.96	6.094	7.53	22.93	7.871	11.94	13.23	2.47
CCCCC1C(=O)N(c2ccccc2)N(c2ccc(O)cc2)C1=O (centres unmarked) [SJ000285591-4, OXYPHENBUTAZONE]	–	–	–	–	–	–	–	–	98.27	119.6	63.81	-3.833	-1.743	81.76	79.54	-9.457
